Data published in US20120094311A1, “GENE AND PROTEIN EXPRESSION PROFILES ASSOCIATED WITH THE THERAPEUTIC EFFICACY OF EGFR-TK INHIBITORS” (priority 2007, published 2012).

Test system: tumor cells derived from NSCLC tumors of patients shown to be responsive to gefitinib
Experiment: Xenograft array: SCID mice bearing patient-derived NSCLC tumors treated with IRESSA
Assay type: in vivo
Conditions: SCID mice injected with patient-derived NSCLC tumor cells; injected with 200 mg/kg of IRESSA
Description: Positive expression was also confirmed using a Xenograft array. To make this array, SCID mice were injected with tumor cells derived from NSCLC tumors of patients shown to be responsive to gefitinib (IRESSA®), and tumors were allowed to grow. The mice then were injected with 200 mg/kg of IRESSA®, and the mice were monitored to observe responsiveness to the drug.

For `COc1cc2ncnc(Nc3ccc(F)c(Cl)c3)c2cc1OCCCN1CCOCC1` [IRESSA, gefitinib], the “tumors formed in the SCID mice after treatment” value was “reduced or eliminated”.
